Tested on: NL4-3 strain of HIV-1
Test: Inhibition of HIV replication: cyto-protection in Cell-Titer-Glo viability assay, MT4 cells infected with NL4-3 virus
Assay type: cell-based
Settings: Human immunodeficiency virus 1, NL43, 120 h, concentration leading to 50% of cyto-protection, 5 days incubation, CellTiter-Glo luminescence
Description: The antiviral activity, particularly against HIV, of compounds according to the invention is evaluated by the protocol described below.
Preparation of Virus Stock of the NL4-3 Strain of HIV-1 (Adachi et al, J Virol, 1986, 59(2):284-91).
The virus was prepared as described in Lopez et al (Lopez et al, Proc Natl Acad Sci USA., 2006, 103(40):14947-52, by transfecting 2×10^6 293 T cells (CRL-1573, ATCC) with following modifications: 6 μg of NL4-3 proviral DNA molecular clone were mixed with Fugene 6 transfection reagent from Roche, and used according to manufacturer's instructions. Forty eight hours later, transfected cell supernatants were harvested, filtered through 0.45-μm-pore-size filters, quantified for HIV-1 p24 antigen by using a Innotest HIV antigen mAb assay (Ingen) according to manufacturer's instructions, and used in infection experiments.
Serial dilutions of compounds to be tested were prepared in complete RPMI medium from 10 mM DMSO stock solutions, and distributed in a volume of 20 μL in 96 well Falcon 353072 Microtest™ tissue culture plate, in order to get 0.5% DMSO final concentration in each well, after the addition of infected cells. Control wells contained also 0.5% DMSO final concentration but no compound.
MT^4 cells (from the NIH AIDS Research and Reference Reagent Program) in RPMI complete medium were counted (10×10^6 cells per well in Falcon 353047 Multiwell™ 24 well) and infected for 2 hours at 37°, at a multiplicity of infection (moi) of 0.0001-0.00001. Cells were then centrifuged 3 min at 3000 rpm, and washed two times in 1 ml PBS to remove viruses that have not entered in cells. Infected cells were resuspended in complete RPMI at 1.25×10^6 cells/ml, and 80 μl of infected cells were distributed in each well containing compounds to be tested or control wells. The plates were then incubated at 37° for 5 days.
Assay Used to Measure the Inhibition of HIV Replication by the Compounds (According to (According to Gregg S. Jones et al., Antimicrobial Agents and Chemotherapy, 2009, 53 (3): 1194-1203).
After 5 days of incubation, 50 μl of CellTiter-Glo reagent (Promega Biosciences, Inc., Madison Wis., USA) were added to each well. Cell lysis was carried out at room temperature during 10 min, 150 μl of lysates were transferred in Packard Optiplate 96 well, and luminescence was read on a Fluoroskan (Thermo Scientific).
The EC50, or effective concentration 50, is the concentration of compound leading to 50% of cyto-protection in a Cell-Titer-Glo® viability assay based on MT^4 cells infected with NL4-3 virus (table 1).

| Structure (SMILES) | EC50 [µM] |
| --- | --- |
| CC(C)(C)OC(C(=O)O)c1c(C(F)(F)F)ccc(-c2ccncc2F)c1-c1ccc2c(c1)CCCO2 (stereo not drawn) [Example 17, 2-(tert-butoxy)-2-[2-(3,4-dihydro-2H-1-benzopyran-6-yl)-3-(3-fluoropyridin-4-yl)-6-(trifluoromethyl)phenyl]acetic acid] | 0.25 |
| CCCn1cc(-c2ccc(C(F)(F)F)c(C(OC(C)(C)C)C(=O)O)c2-c2ccc3c(c2)CCCO3)ccc1=O (stereo not drawn) [Example 25, 2-(tert-butoxy)-2-[2-(3,4-dihydro-2H-1-benzopyran-6-yl)-3-(6-oxo-1-propyl-1,6-dihydropyridin-3-yl)-6-(trifluoromethyl)phenyl]acetic acid] | 0.22 |
| CC(C)(C)OC(C(=O)O)c1c(C(F)(F)F)ccc(-c2cnn(CC(F)(F)F)c2)c1-c1ccc2c(c1)CCCO2 (stereo not drawn) [Example 22, 2-(tert-butoxy)-2-{2-(3,4-dihydro-2H-1-benzopyran-6-yl)-3-[1-(2,2,2-trifluoroethyl)-1H-pyrazol-4-yl]-6-(trifluoromethyl)phenyl}acetic acid] | 0.32 |
| CCCc1cc(-c2ccc(C(F)(F)F)c(C(OC(C)(C)C)C(=O)O)c2-c2ccc3c(c2)CCCO3)ccn1 (stereo not drawn) [Example 28, 2-(tert-butoxy)-2-[2-(3,4-dihydro-2H-1-benzopyran-6-yl)-3-(2-propylpyridin-4-yl)-6-(trifluoromethyl)phenyl]acetic acid] | 0.078 |
| CC(C)(C)OC(C(=O)O)c1c(C(F)(F)F)ccc(-c2ccc(C(N)=O)cc2)c1-c1ccc2c(c1)CCCO2 (stereo not drawn) [Example 13, 2-(tert-butoxy)-2-[3-(4-carbamoylphenyl)-2-(3,4-dihydro-2H-1-benzopyran-6-yl)-6-(trifluoromethyl)phenyl]acetic acid] | 0.83 |
| CC(C)(C)OC(C(=O)O)c1c(C(F)(F)F)ccc(-c2cnn3ccccc23)c1-c1ccc2c(c1)CCCO2 (stereo not drawn) [Example 12, 2-(tert-butoxy)-2-[2-(3,4-dihydro-2H-1-benzopyran-6-yl)-3-{pyrazolo[1,5-a]pyridin-3-yl}-6-(trifluoromethyl)phenyl]acetic acid] | 0.42 |
| Cn1cc(-c2ccc(C(F)(F)F)c(C(OC(C)(C)C)C(=O)O)c2C2=CCC(C)(C)CC2)cn1 (stereo not drawn) [Example 15, 2-(tert-butoxy)-2-[2-(4,4-dimethylcyclohex-1-en-1-yl)-3-(1-methyl-1H-pyrazol-4-yl)-6-(trifluoromethyl)phenyl]acetic acid] | 0.15 |
| CC(C)(C)OC(C(=O)O)c1c(C(F)(F)F)ccc(-c2ccccc2)c1-c1ccc2c(c1)CCCO2 (stereo not drawn) [Example 1, 2-(tert-butoxy)-2-[2-(3,4-dihydro-2H-1-benzopyran-6-yl)-3-phenyl-6-(trifluoromethyl)phenyl]acetic acid] | 0.26 |
| CC(=O)Nc1cccc(-c2ccc(C(F)(F)F)c(C(OC(C)(C)C)C(=O)O)c2-c2ccc3c(c2)CCCO3)c1 (stereo not drawn) [Example 24, 2-(tert-butoxy)-2-[3-(3-acetamidophenyl)-2-(3,4-dihydro-2H-1-benzopyran-6-yl)-6-(trifluoromethyl)phenyl]acetic acid] | 0.29 |
| CC(C)(C)OC(C(=O)O)c1c(C(F)(F)F)ccc(-n2cc(Cl)cn2)c1-c1ccc2c(c1)CCCO2 (stereo not drawn) [Example 10, 2-[3-(4-chloro-1H-pyrazol-1-yl)-2-(3,4-dihydro-2H-1-benzopyran-6-yl)-6-(trifluoromethyl)phenyl]-2-(tert-butoxy)acetic acid] | 0.48 |
| CC(C)(C)OC(C(=O)O)c1c(C(F)(F)F)ccc(-n2ccc(-c3ccccc3)n2)c1-c1ccc2c(c1)CCCO2 (stereo not drawn) [Example 5, 2-(tert-butoxy)-2-[2-(3,4-dihydro-2H-1-benzopyran-6-yl)-3-(3-phenyl-1H-pyrazol-1-yl)-6-(trifluoromethyl)phenyl]acetic acid] | 0.76 |
| CC(C)(C)OC(C(=O)O)c1c(C(F)(F)F)ccc(-c2ccc(=O)n(CC3CC3)c2)c1-c1ccc2c(c1)CCCO2 (stereo not drawn) [Example 27, 2-(tert-butoxy)-2-{3-[1-(cyclopropylmethyl)-6-oxo-1,6-dihydropyridin-3-yl]-2-(3,4-dihydro-2H-1-benzopyran-6-yl)-6-(trifluoromethyl)phenyl}acetic acid] | 0.079 |
| CC(C)Cn1cc(-c2ccc(C(F)(F)F)c(C(OC(C)(C)C)C(=O)O)c2-c2ccc3c(c2)CCCO3)ccc1=O (stereo not drawn) [Example 32, 2-(tert-butoxy)-2-[2-(3,4-dihydro-2H-1-benzopyran-6-yl)-3-[1-(2-methylpropyl)-6-oxo-1,6-dihydropyridin-3-yl]-6-(trifluoromethyl)phenyl]acetic acid] | 0.085 |
| CC(C)(C)OC(C(=O)O)c1c(C(F)(F)F)ccc(-n2cc(Br)cn2)c1-c1ccc2c(c1)CCCO2 (stereo not drawn) [Example 9, 2-[3-(4-bromo-1H-pyrazol-1-yl)-2-(3,4-dihydro-2H-1-benzopyran-6-yl)-6-(trifluoromethyl)phenyl]-2-(tert-butoxy)acetic acid] | 0.36 |
| CC(C)(C)OC(C(=O)O)c1c(C(F)(F)F)ccc(-c2cccc(N)c2)c1-c1ccc2c(c1)CCCO2 (stereo not drawn) [Example 23, 2-[3-(3-aminophenyl)-2-(3,4-dihydro-2H-1-benzopyran-6-yl)-6-(trifluoromethyl)phenyl]-2-(tert-butoxy)acetic acid] | 0.19 |
| CCCc1cccc(-c2ccc(C(F)(F)F)c(C(OC(C)(C)C)C(=O)O)c2-c2ccc3c(c2)CCCO3)c1 (stereo not drawn) [Example 29, 2-(tert-butoxy)-2-[2-(3,4-dihydro-2H-1-benzopyran-6-yl)-3-(3-propylphenyl)-6-(trifluoromethyl)phenyl]acetic acid] | 0.43 |
| CC(C)(C)OC(C(=O)O)c1c(C(F)(F)F)ccc(-c2cccc(C(N)=O)c2)c1-c1ccc2c(c1)CCCO2 (stereo not drawn) [Example 14, 2-(tert-butoxy)-2-[3-(3-carbamoylphenyl)-2-(3,4-dihydro-2H-1-benzopyran-6-yl)-6-(trifluoromethyl)phenyl]acetic acid] | 0.78 |
| CNC(=O)c1ccc(-c2ccc(C(F)(F)F)c(C(OC(C)(C)C)C(=O)O)c2-c2ccc3c(c2)CCCO3)cc1 (stereo not drawn) [Example 19, 2-(tert-butoxy)-2-[2-(3,4-dihydro-2H-1-benzopyran-6-yl)-3-[4-(methylcarbamoyl)phenyl]-6-(trifluoromethyl)phenyl]acetic acid] | 0.33 |
| CC(C)(C)OC(C(=O)O)c1c(C(F)(F)F)ccc(-c2ccc(N)cc2)c1-c1ccc2c(c1)CCCO2 (stereo not drawn) [Example 20, 2-[3-(4-aminophenyl)-2-(3,4-dihydro-2H-1-benzopyran-6-yl)-6-(trifluoromethyl)phenyl]-2-(tert-butoxy)acetic acid] | 0.15 |
| CC(C)(C)OC(C(=O)O)c1c(C(F)(F)F)ccc(-c2ccnc(OCc3ccccc3)c2)c1-c1ccc2c(c1)CCCO2 (stereo not drawn) [Example 6, 2-{3-[2-(benzyloxy)pyridin-4-yl]-2-(3,4-dihydro-2H-1-benzopyran-6-yl)-6-(trifluoromethyl)phenyl}-2-(tert-butoxy)acetic acid] | 0.26 |
| CC(C)(C)OC(C(=O)O)c1c(C(F)(F)F)ccc(-c2cccn(CC3CCC3)c2=O)c1-c1ccc2c(c1)CCCO2 (stereo not drawn) [Example 38, 2-(tert-butoxy)-2-{3-[1-(cyclobutylmethyl)-2-oxo-1,2-dihydropyridin-3-yl]-2-(3,4-dihydro-2H-1-benzopyran-6-yl)-6-(trifluoromethyl)phenyl}acetic acid] | 0.13 |
| CC(C)(C)OC(C(=O)O)c1c(C(F)(F)F)ccc(-c2ccc(=O)n(Cc3ccccc3)c2)c1-c1ccc2c(c1)CCCO2 (stereo not drawn) [Example 26, 2-[3-(1-benzyl-6-oxo-1,6-dihydropyridin-3-yl)-2-(3,4-dihydro-2H-1-benzopyran-6-yl)-6-(trifluoromethyl)phenyl]-2-(tert-butoxy)acetic acid] | 0.44 |
| CC(C)(C)OC(C(=O)O)c1c(C(F)(F)F)ccc(-c2ccncn2)c1-c1ccc2c(c1)CCCO2 (stereo not drawn) [Example 16, 2-(tert-butoxy)-2-[2-(3,4-dihydro-2H-1-benzopyran-6-yl)-3-(pyrimidin-4-yl)-6-(trifluoromethyl)phenyl]acetic acid] | 0.94 |
| CC(C)(C)OC(C(=O)O)c1c(C(F)(F)F)ccc(-c2cccs2)c1-c1ccc2c(c1)CCCO2 (stereo not drawn) [Example 7, 2-(tert-butoxy)-2-[2-(3,4-dihydro-2H-1-benzopyran-6-yl)-3-(thiophen-2-yl)-6-(trifluoromethyl)phenyl]acetic acid] | 0.3 |

Source: patent US9475802B2, “Inhibitors of viral replication, their process of preparation and their therapeutical uses” (LABORATOIRE BIODIM, priority 2012, dated 2016)
